Results reported in patent US10550111B2, “Pyrimidine urea compound containing isoxazolines and use thereof” (SHENYANG SINOCHEM AGROCHEMICALS R&D CO., LTD, priority 2014, dated 2020).

Columns and labels:
Format in all cases: in vivo
[1] = system: Abutilon theophrasti Medic.; assay: Bioassay of herbicidal activity in greenhouse (further screening)
Procedure, shortened: (§1)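 Visual growth inhibition rating (0 no effect to 100 all weeds dead or not emerged) after track-sprayer application (500 L/hm²) of emulsifiable concentrate. Treatments either pre-emergence, 24 h after sowing, or post-emergence at 2–3-leaf grass and 2–4-leaf broad-leaf stage, greenhouse-grown.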

[2] = system: Echinochloa crus-galli (L.) Beauv.; assay: as above
Procedure, shortened: as §1

[3] = system: Setaria glauca (L.) Beauv.; assay: as above
Procedure, shortened: as §1

Zinnia elegans Jacq. = assay: as above
Procedure, shortened: as §1

[4] = system: broad-leaf weeds and grass weeds; assay: General screening of herbicidal activity in greenhouse; settings: 1000 g a.i./hm^2
Procedure, shortened: as §1

maize = assay: Crop safety study in greenhouse; settings: 7.5-37.5 g a.i./hm^2; pre-emergence and post-emergence application
Source text: (§2) Seeds of soybean, cotton, maize, wheat and rice were sown in nutrition soil in paper pot (9 cm diameter), covered with soil in 1 cm and grown in the greenhouse under good growth conditions (temperature, atmospheric humidity, water supply). The compounds of the present invention as emulsifiable concentrate, were applied in pre-emergence and post-emergence treatment by track sprayer (Engineer Research Ltd., pressure 1.95 kg/cm^2, volume 500 L/hm^2, track speed 1.48 km/h). Pre-emergence treatment was conducted after seeding 24 hours and post-emergence treatment was done when the respective weeds reached predetermined leaf stage (soybean and cotton at 2- to 4-leaf stage and maize, wheat and rice at 3-leaf stage), the state of growth of the respective crops were visually observed to determine the safety in accordance with the following evaluation standard.
(§3) Safety rating scale (%): 0 means no damage to crops; 100 means to kill crops completely.

rice = assay: Crop safety study in greenhouse; settings: 7.5-37.5 g a.i./hm^2; pre-emergence and post-emergence application
Source text: as §2, §3

wheat = assay: Crop safety study in greenhouse; settings: 7.5-37.5 g a.i./hm^2; pre-emergence and post-emergence application
Source text: as §2, §3

## Cn1c(C(F)(F)F)cc(=O)n(-c2cc(C3=NOC(C)(COC(=O)COc4ccc(Cl)cc4Cl)C3)c(Cl)cc2F)c1=O (stereo not shown) [Compound 83]
[1]; dose 7.5 g a.i./hm^2
  Growth inhibition rate, Post-emergence treatment, Abutilon theophrasti Medic.: 65%
  Growth inhibition rate, Pre-emergence treatment, Abutilon theophrasti Medic.: 0%
[1]; dose 15 g a.i./hm^2
  Growth inhibition rate, Post-emergence treatment, Abutilon theophrasti Medic.: 98%
  Growth inhibition rate, Pre-emergence treatment, Abutilon theophrasti Medic.: 30%
[1]; dose 37.5 g a.i./hm^2
  Growth inhibition rate, Post-emergence treatment, Abutilon theophrasti Medic.: 100%
  Growth inhibition rate, Pre-emergence treatment, Abutilon theophrasti Medic.: 50%
[1]; dose 150 g a.i./hm^2
  Growth inhibition rate, Post-emergence treatment, Abutilon theophrasti Medic.: 100%
  Growth inhibition rate, Pre-emergence treatment, Abutilon theophrasti Medic.: 100%
[1]; dose 600 g a.i./hm^2
  Growth inhibition rate, Post-emergence treatment, Abutilon theophrasti Medic.: 100%
  Growth inhibition rate, Pre-emergence treatment, Abutilon theophrasti Medic.: 100%
[2]; dose 7.5 g a.i./hm^2
  Growth inhibition rate, Post-emergence treatment, Echinochloa crus-galli (L.) Beauv.: 25%
  Growth inhibition rate, Pre-emergence treatment, Echinochloa crus-galli (L.) Beauv.: 10%
[2]; dose 15 g a.i./hm^2
  Growth inhibition rate, Post-emergence treatment, Echinochloa crus-galli (L.) Beauv.: 25%
  Growth inhibition rate, Pre-emergence treatment, Echinochloa crus-galli (L.) Beauv.: 10%
[2]; dose 37.5 g a.i./hm^2
  Growth inhibition rate, Post-emergence treatment, Echinochloa crus-galli (L.) Beauv.: 30%
  Growth inhibition rate, Pre-emergence treatment, Echinochloa crus-galli (L.) Beauv.: 25%
[2]; dose 150 g a.i./hm^2
  Growth inhibition rate, Post-emergence treatment, Echinochloa crus-galli (L.) Beauv.: 45%
  Growth inhibition rate, Pre-emergence treatment, Echinochloa crus-galli (L.) Beauv.: 90%
[2]; dose 600 g a.i./hm^2
  Growth inhibition rate, Post-emergence treatment, Echinochloa crus-galli (L.) Beauv.: 90%
  Growth inhibition rate, Pre-emergence treatment, Echinochloa crus-galli (L.) Beauv.: 100%
[3]; dose 7.5 g a.i./hm^2
  Growth inhibition rate, Post-emergence treatment, Setaria glauca (L.) Beauv.: 30%
  Growth inhibition rate, Pre-emergence treatment, Setaria glauca (L.) Beauv.: 10%
[3]; dose 15 g a.i./hm^2
  Growth inhibition rate, Post-emergence treatment, Setaria glauca (L.) Beauv.: 45%
  Growth inhibition rate, Pre-emergence treatment, Setaria glauca (L.) Beauv.: 15%
[3]; dose 37.5 g a.i./hm^2
  Growth inhibition rate, Post-emergence treatment, Setaria glauca (L.) Beauv.: 50%
  Growth inhibition rate, Pre-emergence treatment, Setaria glauca (L.) Beauv.: 35%
[3]; dose 150 g a.i./hm^2
  Growth inhibition rate, Post-emergence treatment, Setaria glauca (L.) Beauv.: 70%
  Growth inhibition rate, Pre-emergence treatment, Setaria glauca (L.) Beauv.: 80%
[3]; dose 600 g a.i./hm^2
  Growth inhibition rate, Post-emergence treatment, Setaria glauca (L.) Beauv.: 85%
  Growth inhibition rate, Pre-emergence treatment, Setaria glauca (L.) Beauv.: 100%
Zinnia elegans Jacq.; dose 7.5 g a.i./hm^2
  Growth inhibition rate, Post-emergence treatment, Zinnia elegans Jacq.: 65%
  Growth inhibition rate, Pre-emergence treatment, Zinnia elegans Jacq.: 0%
Zinnia elegans Jacq.; dose 15 g a.i./hm^2
  Growth inhibition rate, Post-emergence treatment, Zinnia elegans Jacq.: 90%
  Growth inhibition rate, Pre-emergence treatment, Zinnia elegans Jacq.: 10%
Zinnia elegans Jacq.; dose 37.5 g a.i./hm^2
  Growth inhibition rate, Post-emergence treatment, Zinnia elegans Jacq.: 98%
  Growth inhibition rate, Pre-emergence treatment, Zinnia elegans Jacq.: 50%
Zinnia elegans Jacq.; dose 150 g a.i./hm^2
  Growth inhibition rate, Post-emergence treatment, Zinnia elegans Jacq.: 100%
  Growth inhibition rate, Pre-emergence treatment, Zinnia elegans Jacq.: 100%
Zinnia elegans Jacq.; dose 600 g a.i./hm^2
  Growth inhibition rate, Post-emergence treatment, Zinnia elegans Jacq.: 100%
  Growth inhibition rate, Pre-emergence treatment, Zinnia elegans Jacq.: 100%
[4]
  pre-emergence and post-emergence herbicidal activity against broad-leaf weeds and grass weeds: good
maize
  Crop safety, maize: good safety
rice
  Crop safety, rice: good safety
wheat
  Crop safety, wheat: good safety

## Cn1c(C(F)(F)F)cc(=O)n(-c2cc(C3=NOC(C)(COC(=O)C4CC4)C3)c(Cl)cc2F)c1=O (stereo not shown) [Compound 45]
[1]; dose 7.5 g a.i./hm^2
  Growth inhibition rate, Post-emergence treatment, Abutilon theophrasti Medic.: 98%
  Growth inhibition rate, Pre-emergence treatment, Abutilon theophrasti Medic.: 98%
[1]; dose 15 g a.i./hm^2
  Growth inhibition rate, Post-emergence treatment, Abutilon theophrasti Medic.: 100%
  Growth inhibition rate, Pre-emergence treatment, Abutilon theophrasti Medic.: 100%
[1]; dose 37.5 g a.i./hm^2
  Growth inhibition rate, Post-emergence treatment, Abutilon theophrasti Medic.: 100%
  Growth inhibition rate, Pre-emergence treatment, Abutilon theophrasti Medic.: 95%
[1]; dose 150 g a.i./hm^2
  Growth inhibition rate, Post-emergence treatment, Abutilon theophrasti Medic.: 100%
  Growth inhibition rate, Pre-emergence treatment, Abutilon theophrasti Medic.: 100%
[1]; dose 600 g a.i./hm^2
  Growth inhibition rate, Post-emergence treatment, Abutilon theophrasti Medic.: 100%
  Growth inhibition rate, Pre-emergence treatment, Abutilon theophrasti Medic.: 100%
[2]; dose 7.5 g a.i./hm^2
  Growth inhibition rate, Post-emergence treatment, Echinochloa crus-galli (L.) Beauv.: 15%
  Growth inhibition rate, Pre-emergence treatment, Echinochloa crus-galli (L.) Beauv.: 5%
[2]; dose 15 g a.i./hm^2
  Growth inhibition rate, Post-emergence treatment, Echinochloa crus-galli (L.) Beauv.: 15%
  Growth inhibition rate, Pre-emergence treatment, Echinochloa crus-galli (L.) Beauv.: 10%
[2]; dose 37.5 g a.i./hm^2
  Growth inhibition rate, Post-emergence treatment, Echinochloa crus-galli (L.) Beauv.: 25%
  Growth inhibition rate, Pre-emergence treatment, Echinochloa crus-galli (L.) Beauv.: 20%
[2]; dose 150 g a.i./hm^2
  Growth inhibition rate, Post-emergence treatment, Echinochloa crus-galli (L.) Beauv.: 80%
  Growth inhibition rate, Pre-emergence treatment, Echinochloa crus-galli (L.) Beauv.: 85%
[2]; dose 600 g a.i./hm^2
  Growth inhibition rate, Post-emergence treatment, Echinochloa crus-galli (L.) Beauv.: 100%
  Growth inhibition rate, Pre-emergence treatment, Echinochloa crus-galli (L.) Beauv.: 100%
[3]; dose 7.5 g a.i./hm^2
  Growth inhibition rate, Post-emergence treatment, Setaria glauca (L.) Beauv.: 30%
  Growth inhibition rate, Pre-emergence treatment, Setaria glauca (L.) Beauv.: 70%
[3]; dose 15 g a.i./hm^2
  Growth inhibition rate, Post-emergence treatment, Setaria glauca (L.) Beauv.: 45%
  Growth inhibition rate, Pre-emergence treatment, Setaria glauca (L.) Beauv.: 80%
[3]; dose 37.5 g a.i./hm^2
  Growth inhibition rate, Post-emergence treatment, Setaria glauca (L.) Beauv.: 50%
  Growth inhibition rate, Pre-emergence treatment, Setaria glauca (L.) Beauv.: 95%
[3]; dose 150 g a.i./hm^2
  Growth inhibition rate, Post-emergence treatment, Setaria glauca (L.) Beauv.: 85%
  Growth inhibition rate, Pre-emergence treatment, Setaria glauca (L.) Beauv.: 90%
[3]; dose 600 g a.i./hm^2
  Growth inhibition rate, Post-emergence treatment, Setaria glauca (L.) Beauv.: 98%
  Growth inhibition rate, Pre-emergence treatment, Setaria glauca (L.) Beauv.: 100%
Zinnia elegans Jacq.; dose 7.5 g a.i./hm^2
  Growth inhibition rate, Post-emergence treatment, Zinnia elegans Jacq.: 95%
  Growth inhibition rate, Pre-emergence treatment, Zinnia elegans Jacq.: 20%
Zinnia elegans Jacq.; dose 15 g a.i./hm^2
  Growth inhibition rate, Post-emergence treatment, Zinnia elegans Jacq.: 100%
  Growth inhibition rate, Pre-emergence treatment, Zinnia elegans Jacq.: 20%
Zinnia elegans Jacq.; dose 37.5 g a.i./hm^2
  Growth inhibition rate, Post-emergence treatment, Zinnia elegans Jacq.: 100%
  Growth inhibition rate, Pre-emergence treatment, Zinnia elegans Jacq.: 90%
Zinnia elegans Jacq.; dose 150 g a.i./hm^2
  Growth inhibition rate, Post-emergence treatment, Zinnia elegans Jacq.: 100%
  Growth inhibition rate, Pre-emergence treatment, Zinnia elegans Jacq.: 95%
Zinnia elegans Jacq.; dose 600 g a.i./hm^2
  Growth inhibition rate, Post-emergence treatment, Zinnia elegans Jacq.: 100%
  Growth inhibition rate, Pre-emergence treatment, Zinnia elegans Jacq.: 100%
[4]
  pre-emergence and post-emergence herbicidal activity against broad-leaf weeds and grass weeds: good
maize
  Crop safety, maize: good safety
rice
  Crop safety, rice: good safety
wheat
  Crop safety, wheat: good safety
